Experimental data: patent US9206448B2, “Extraction solvents derived from oil for alcohol removal in extractive fermentation” (Butamax Advanced Biofuels LLC, priority 2010, dated 2015)
Where “and” joins values, the source holds several entries; their conditions need not be identical. Identical values can stand only once. Values belong to the compound of their own block, whether it stands above or below them.

What was measured:
strain NGCI-070 = test: Extractive fermentation, examples GLNOR661A-666A, 690A-695A, 721A-726A, 749A-754A; conditions: pH 5.5, fermentation broth
Method: (§1) Fermentation conditions: 30% pO2; temperature: 30° C.; pH 5.5 (unless noted otherwise); initial batch glucose: 20 g/L, maintained during production.
(§2) Both HPLC and GC analyses were used for the quantization of isobutanol in the aqueous phase and solvent phase respectively. Isobutanol in the aqueous was measured after filtration through a 0.2 um nylon filter with a HPLC (Agilent 1100, Agilent, Santa Clara, Calif.) under the following conditions: • Column: Bio-Rad, Aminex HPX-87H, No. 125-0143 • Mobile Phase: […] • Injection Volume: 10 uL • Flow Rate: 0.6 mL/min • Run Time: 22.5 minutes • Column Temperature: 65° C. • Detectors: Refractive Index • Detector Temperature: 40° C. • UV Detection: 210 nm, 4 nm bandwidth, Ref 360 nm, 100 nm bandwidth.
(§3) The solvent phase was measured with a GC (HP6890, Agilent, Santa Clara, Calif.) under the following conditions: • Column: J&W Scientific DB Waxter (50 m×0.32 mm ID, 1 um film) • Gas Carrier: Helium 4 mL/min • Injection Volume: 2 uL • Make Up Flow Rate: 40 mL/min • Run Time: 29 minutes • Oven Temperature: 40° C. for 5 min, 40° C. to 230° C. @10° C./min., 5 min 230° C. • Injector Split: 1:5 @ 250° C. • Flame Ionization Detection: 250° C.
(§4) The extractants were added to the fermentor broth at time zero exposing the culture to the solvent for the duration of the fermentation. Isobutanol concentrations in both the aqueous phase and organic phase were measured to calculate the partitioning coefficient of the extraction solvent. Glucose utilization was used to determine the biocompatability of the microorganism to the extractant.
(§5) The fermentations were carried out as described with the strain NGCI-065. The inoculum was prepared in two stages and incubated at 30° C. and 250 rpm in an incubator shaker (Innova 4200, New Brunswick Scientific, Edison, N.J.). The first stage or pre-seed was inoculated from a frozen glycerol seed stock, two vials were placed into a 250 mL flask with 30 mL of filter sterilized pre-seed media (Table 4) and grown for 24 hours to an OD of approximately 2. 15 mL of the pre-seed was then transferred to a 2 L flask with 270 mL of filter sterilized seed media (Table 5) for the second stage which was incubated for 24 hours. 30 mL of filter sterilized 10× YEP and 300 mL of filter sterilized 90-95% oleyl alcohol was then added and incubated for an additional 24 hours to a final OD of approximately 5-10 in the aqueous phase of the seed culture. For examples GLNOR639 and GLNOR640, the pH was 4.5.
Fermentation vessels (Applikon AD1010 Bioreactor, Applikon Biotechnology, Dover, N.J.) were sterilized with diH2O for 30 minutes (Amsco Renaissance 3033 Revas Steam Sterilizer, Steris Corporation, Mentor, Ohio). Once the vessels were finished sterilization in the autoclave and cooled to 30° C., the sterile diH2O was removed and the filter sterilized fermentation media was added to a volume of 280 mL. 70 mL of the aqueous phase from the second stage seed flasks was added to the fermentation vessel for a final aqueous volume of 350 mL. Immediately after inoculation, 100 mL of 10× YEP media supplementation was added as well as 450 mL of the respective extraction solvent for a final solvent to broth ratio of approximately 1:1. Fermentation set-point conditions were temperature 30° C., pO2 30%, pH 5.5 for GLNOR635A-638A and pH 4.5 for GLNOR639A-640A. The fermentation was sampled approximately every 8 hours from the time of inoculation to monitor glucose concentration, which was maintained between 5-20 g/L through the addition of 50% w/w glucose solution, and analyzed for isobutanol accumulation in both the aqueous phase and the extractant phase. Enough sample volume was taken at each time point to obtain a sample from both of the phases, then those samples were centrifuged in order to ensure a clean cut of each.
The examples in this set were performed the same as in the previous examples GLNOR635A-640A with the exception of the strain, pH, and supplement addition at time zero.

strain NGCI-065 = test: Extractive fermentation, examples GLNOR635A-640A
Method: as §1, §2, §3, §4, §5
Fermentation vessels (Applikon AD1010 Bioreactor, Applikon Biotechnology, Dover, N.J.) were sterilized with diH2O for 30 minutes (Amsco Renaissance 3033 Revas Steam Sterilizer, Steris Corporation, Mentor, Ohio). Once the vessels were finished sterilization in the autoclave and cooled to 30° C., the sterile diH2O was removed and the filter sterilized fermentation media was added to a volume of 280 mL. 70 mL of the aqueous phase from the second stage seed flasks was added to the fermentation vessel for a final aqueous volume of 350 mL. […] The fermentation was sampled approximately every 8 hours from the time of inoculation to monitor glucose concentration, which was maintained between 5-20 g/L through the addition of 50% w/w glucose solution, and analyzed for isobutanol accumulation in both the aqueous phase and the extractant phase. […]

[1] = system: Saccharomyces butanologen NGCI-070; test: Shake flask incubation with fermentation broth, glucose consumption followed over time; format: cell-based, Saccharomyces cerevisiae; conditions: 3 parts broth to 1 part extractant
Method: Fatty amide/fatty acid aqueous ammonia preparation (1), and a preparation (1 a) constituted by preparation (1) mixed 1:1 with pure corn oil fatty acid (equivalent to 1:2 fatty amide:fatty acid) were incubated in shake flasks with fermentation broth containing the Saccharomyces butanologen NGCI-070 at a ratio of 3 parts broth to 1 part amide/acid mixture. […] Starting at a glucose concentration of 8.35 g/L, the shake flasks were then incubated for 25 h on an incubator shaker and the consumption of glucose followed as a function of time.

Compound: CCCCCCC(CO)CCCC (stereo not drawn) [Isofol ™ 12, 2-butyl-1-octanol]
- Kp (solvent partition coefficient) (strain NGCI-070; listed as GLNOR749): 4.05
- Kp (solvent partition coefficient) (strain NGCI-070; listed as GLNOR750): 4.22

- Kp (solvent partition coefficient) (strain NGCI-070; listed as GLNOR665): 2.61
- Kp (solvent partition coefficient) (strain NGCI-070; listed as GLNOR666): 2.51
- Kp (solvent partition coefficient) (strain NGCI-065; pH 4.5, fermentation broth, listed as GLNOR639): 2.54
- Kp (solvent partition coefficient) (strain NGCI-065; pH 4.5, fermentation broth, listed as GLNOR640): 2.51
- Kp (solvent partition coefficient) (strain NGCI-065; pH 5.5, fermentation broth, listed as GLNOR637): 2.64
- Kp (solvent partition coefficient) (strain NGCI-065; pH 5.5, fermentation broth, listed as GLNOR638): 2.56
Compound: CCCCCCCC/C=C\CCCCCCCC(=O)O [Oleic Acid]

Compound: CCCCCCCC/C=C\CCCCCCCCO [Oleyl Alcohol]
- Kp (solvent partition coefficient) (strain NGCI-070; listed as GLNOR661): 3.35
- Kp (solvent partition coefficient) (strain NGCI-070; listed as GLNOR690): 3.74
- Kp (solvent partition coefficient) (strain NGCI-070; listed as GLNOR691): 3.77
- Glucose conc. ([1]; 18 hrs): 4.26 g/L and 4.46 g/L
- Glucose conc. ([1]; 25 hrs): 0 g/L
- Glucose conc. ([1]; Time = 0): 8.35 g/L
- Kp (solvent partition coefficient) (strain NGCI-065; pH 5.5, fermentation broth): 3.38
